Laboratory results from publication PMC7874188, “Mucoromycotina Fungi Possess the Ability to Utilize Plant Sucrose as a Carbon Source: Evidence From Gongronella sp. w5” (Frontiers in Microbiology, 2021).

Test system: T1, GspInv
T1 construct: native, purified from w5 mycelia cytoplasm (High Q, Sephacryl S100); untagged
Test: invertase hydrolysis kinetics, […] substrate
Assay type: biochemical, Gongronella sp. w5
Conditions: pH 5.0 citrate-Na2HPO4, optimal temperature; constant printed only as "substrate affinity"

Km: 3.1 mM
Compound: OC[C@H]1O[C@@](CO)(O[C@H]2O[C@H](CO)[C@@H](O)[C@H](O)[C@H]2O)[C@@H](O)[C@@H]1O [sucrose]
